{"source": "patent US8198285B2", "about": "“Pyrazine derivatives” (Astrazeneca AB, priority 2010, dated 2012)", "molecular_target": "T1, cardiac Na+ channel, hNav1.5 (Homo sapiens, UniProt Q14524)", "T1 construct": "expressed in transfected cells; host or cells: Chinese hamster ovary K1 (CHO) cells", "T1 sequence (Q14524 whole entry)": "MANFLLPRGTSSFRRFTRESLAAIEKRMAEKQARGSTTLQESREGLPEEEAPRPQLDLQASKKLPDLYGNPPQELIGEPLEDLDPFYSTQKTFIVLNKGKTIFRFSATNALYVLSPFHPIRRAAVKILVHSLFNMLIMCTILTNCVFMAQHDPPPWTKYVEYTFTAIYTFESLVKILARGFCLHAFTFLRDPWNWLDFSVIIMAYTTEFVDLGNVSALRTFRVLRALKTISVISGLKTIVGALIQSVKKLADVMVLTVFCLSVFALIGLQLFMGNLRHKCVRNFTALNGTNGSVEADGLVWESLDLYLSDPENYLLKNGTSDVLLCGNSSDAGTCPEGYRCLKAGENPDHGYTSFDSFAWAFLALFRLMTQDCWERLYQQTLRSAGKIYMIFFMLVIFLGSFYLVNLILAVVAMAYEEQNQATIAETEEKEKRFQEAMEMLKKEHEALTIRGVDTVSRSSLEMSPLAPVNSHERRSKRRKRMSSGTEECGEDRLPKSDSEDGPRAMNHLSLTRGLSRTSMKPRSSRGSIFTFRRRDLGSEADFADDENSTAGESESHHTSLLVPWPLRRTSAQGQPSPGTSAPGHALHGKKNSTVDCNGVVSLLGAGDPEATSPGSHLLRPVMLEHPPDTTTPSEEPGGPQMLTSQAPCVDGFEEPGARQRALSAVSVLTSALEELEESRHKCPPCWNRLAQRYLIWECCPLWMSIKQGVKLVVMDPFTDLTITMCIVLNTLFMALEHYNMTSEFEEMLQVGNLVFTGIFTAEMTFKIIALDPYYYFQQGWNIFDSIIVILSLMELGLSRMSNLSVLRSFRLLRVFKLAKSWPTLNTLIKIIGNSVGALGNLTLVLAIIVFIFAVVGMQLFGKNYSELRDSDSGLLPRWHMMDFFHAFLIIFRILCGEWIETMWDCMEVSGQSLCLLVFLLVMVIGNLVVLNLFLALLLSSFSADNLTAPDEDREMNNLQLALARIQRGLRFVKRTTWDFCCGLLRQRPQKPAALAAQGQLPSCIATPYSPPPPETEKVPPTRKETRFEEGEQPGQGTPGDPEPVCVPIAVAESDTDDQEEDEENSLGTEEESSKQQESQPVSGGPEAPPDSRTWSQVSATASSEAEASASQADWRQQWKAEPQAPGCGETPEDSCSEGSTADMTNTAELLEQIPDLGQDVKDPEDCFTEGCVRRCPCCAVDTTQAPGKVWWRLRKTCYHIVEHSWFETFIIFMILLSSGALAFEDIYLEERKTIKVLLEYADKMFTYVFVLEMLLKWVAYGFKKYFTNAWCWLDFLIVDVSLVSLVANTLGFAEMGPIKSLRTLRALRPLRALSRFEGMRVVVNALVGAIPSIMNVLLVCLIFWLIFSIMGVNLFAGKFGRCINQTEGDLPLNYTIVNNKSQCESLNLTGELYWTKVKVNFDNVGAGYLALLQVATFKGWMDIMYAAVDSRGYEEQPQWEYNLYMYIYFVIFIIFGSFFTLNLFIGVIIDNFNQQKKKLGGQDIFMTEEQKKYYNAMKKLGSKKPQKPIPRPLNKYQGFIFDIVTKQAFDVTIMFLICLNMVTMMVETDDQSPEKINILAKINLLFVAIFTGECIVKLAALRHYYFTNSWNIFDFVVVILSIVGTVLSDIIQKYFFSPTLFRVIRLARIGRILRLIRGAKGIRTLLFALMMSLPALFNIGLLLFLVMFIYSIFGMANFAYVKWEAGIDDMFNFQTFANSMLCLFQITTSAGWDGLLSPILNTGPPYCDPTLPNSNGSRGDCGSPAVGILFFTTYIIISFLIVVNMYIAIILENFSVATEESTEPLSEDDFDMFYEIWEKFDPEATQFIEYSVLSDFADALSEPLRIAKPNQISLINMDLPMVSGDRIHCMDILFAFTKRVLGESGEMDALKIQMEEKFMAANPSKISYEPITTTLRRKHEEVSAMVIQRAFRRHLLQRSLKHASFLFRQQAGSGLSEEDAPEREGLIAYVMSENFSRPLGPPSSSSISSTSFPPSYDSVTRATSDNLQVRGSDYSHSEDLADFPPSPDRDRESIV", "assay": "hNav1.5 IonWorks electrophysiology in CHO cells", "type": "cell-based", "conditions": "IonWorks Quattro, 3 Hz, room temperature", "method": "The hNav1.5-expressing Chinese hamster ovary K1 (CHO) cells used has been described previously (Persson, F. et al, (2005), Journal of Cardiovascular Electrophysiology, 16, 329-341). These cells were grown to semi-confluence at 37° C. in a humidified environment (5% CO2) in F-12 Ham medium containing Glutamax™, 10% foetal calf serum and 1 mg/ml G418 (all Invitrogen). Prior to use, the monolayer was washed using a pre-warmed (37° C.) 3 ml aliquot of Versene 1:5000 (Invitrogen). After aspiration of this solution the flask was incubated at 37° C. with a further 3 ml of Versene 1:5000 for a period of 6 min. […] A 0.5 ml aliquot of cell suspension was removed and the number of viable cells (based on trypan blue exclusion) was determined in an automated cell counter (Cedex; Innovatis) so that the cell re-suspension volume could be adjusted with PBS to give the desired final cell concentration. […]\nPre- and post-scan hNav1.5 current amplitude was measured from the leak-subtracted traces by the IonWorks™ software by taking the average current during the end of the depolarising pulse to 0 mV (baseline current) and subtracting this from the peak inward current. […]", "note": "Where a name gives a salt, the structure may show the parent alone.", "data": [{"smiles": "COCCCNCCCc1ccc(-c2cnc(N)c(C(=O)Nc3cccnc3)n2)cc1", "note": "[Example 1, 3-Amino-6-(4-{3-[(3-methoxypropyl)amino]propyl}phenyl)-N-pyridin-3-ylpyrazine-2-carboxamide tri-hydrochloride]", "values": [{"measurement": "IC50", "result": 21.2, "unit": "µM"}]}]}
